Results from paper PMC8972196, “A Set of Experimentally Validated Decoys for the Human CC Chemokine Receptor 7 (CCR7) Obtained by Virtual Screening” (Frontiers in Pharmacology, 2022).
Read-outs that look alike come from different tables or passages of the source.

Biological target: T1, human CCR7 (Homo sapiens, UniProt P32248)
T1 construct: expressed in transfected cells
T1 sequence (P32248 25-378): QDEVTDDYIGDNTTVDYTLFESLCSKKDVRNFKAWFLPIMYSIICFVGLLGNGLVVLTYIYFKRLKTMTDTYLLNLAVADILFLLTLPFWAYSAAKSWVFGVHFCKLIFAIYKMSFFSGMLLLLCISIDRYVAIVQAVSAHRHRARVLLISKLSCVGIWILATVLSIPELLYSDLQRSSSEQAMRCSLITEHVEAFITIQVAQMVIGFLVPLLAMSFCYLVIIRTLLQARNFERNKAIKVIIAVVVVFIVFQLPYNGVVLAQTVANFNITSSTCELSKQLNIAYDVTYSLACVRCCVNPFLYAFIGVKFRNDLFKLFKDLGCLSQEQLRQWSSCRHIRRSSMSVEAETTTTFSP
Experiment: CCL19-induced calcium mobilization assay, U87.CD4 cells expressing CCR7
Type: cell-based
Details: for IC50: read-out: IC50 [μM] block CCL19 induced calcium signaling
Method: U87.CD4 cells that stably express either human CCR7, CXCR2, CCR5 or CXCR4 were seeded (20,000 cells/well) in gelatin-coated black-walled polystyrene 96-well plates with clear bottom and incubated overnight at 37°C and 5% CO2. […] Culture medium was removed, and cells were incubated for 45 min at room temperature in the dark. […] Exactly the same protocol was used to record calcium responses in Chinese hamster ovary (CHO)-K1 cells, upon stimulation with adenosine triphosphate (ATP, purchased from Sigma).

[1] = CCL19 induced calcium signaling
[2] = classification as decoy or active on CCR7
[3] = CCL19-induced calcium signaling
[4] = classification of tested compounds as decoy or active

Structure (SMILES)	IC50 [1]	Decoy – 0 Active – 1 [2]	IC50 [3]	Decoy – 0 Active – 1 [4]
COc1cccc(N(CC(=O)Nc2cccc([N+](=O)[O-])c2)S(=O)(=O)c2ccc(C)cc2)c1 [C255, Cc1ccc(cc1)S(=O)(=O)N(CC(=O)Nc2cccc(c2)[N+](=O)[O-])c3cccc(c3)OC]	> 50 µM	0	–	–
O=C(CNc1c(N2CCN(c3ccc(Cl)cc3)CC2)c(=O)c1=O)NCc1ccco1 [C008, O=C(CNc1c(N2CCN(c3ccc(Cl)cc3)CC2)c(=O)c1=O)NCc1ccco1]	–	–	> 50 µM	0
C[C@H](Nc1c(N[C@H]2C[C@H]3CC[C@@]2(CN2CCCC2)C3(C)C)c(=O)c1=O)c1cccc2ccccc12 [C022, CC1(C)[C@@H]2CC[C@]1(CN3CCCC3)[C@@H](NC(C4=O)=C(N[C@H](C5=CC=CC6=C5C=CC=C6)C)C4=O)C2]	–	–	> 50 µM	0
Cc1ccc(N2C(=O)C3C(C(=O)O)NC(c4ccccc4O)C3C2=O)cc1 (centres unmarked) [C186, Cc1ccc(N2C(=O)C3C(C(=O)[O-])[NH2+]C(c4ccccc4O)C3C2=O)cc1]	> 50 µM	0	–	–
N=C(Nc1ccc(Br)cc1)C(N)=Nc1ccc(Br)cc1 [C077, NC(=[NH+]c1ccc(Br)cc1)C(=[NH2+])Nc1ccc(Br)cc1]	–	–	> 10 µM	0
O=c1oc2ccccc2n1CCCN1CCCC1c1ccc(O)cc1 (centres unmarked) [C189, O=c1oc2ccccc2n1CCC[NH+]1CCCC1c1ccc(O)cc1]	> 50 µM	0	–	–
C[C@@H](NC(=O)c1nnc(-c2ccc(S(=O)(=O)N(C)C)cc2)o1)c1ccccn1 [C092, C[C@@H](NC(=O)c1nnc(-c2ccc(S(=O)(=O)N(C)C)cc2)o1)c1ccccn1]	–	–	> 50 µM	0
CC[C@H](NC(=O)N(CCO)Cc1ccc(F)cc1)c1nc(C)no1 [C163, CC[C@H](NC(=O)N(CCO)Cc1ccc(F)cc1)c1nc(C)no1]	> 50 µM	0	–	–
Cc1ccc(CNC(=O)c2nnc(-c3ccc(S(=O)(=O)N4CCCC4)cc3)o2)o1 [C091, Cc1ccc(CNC(=O)c2nnc(-c3ccc(S(=O)(=O)N4CCCC4)cc3)o2)o1]	–	–	> 50 µM	0
Cn1ncc(NC(=S)Nc2ccccc2C(F)(F)F)c1C(N)=O [C037, Cn1ncc(NC(=S)Nc2ccccc2C(F)(F)F)c1C(N)=O]	–	–	> 30 µM	0
CN(C)[C@@H]1CCCC[C@H]1NC(=S)Nc1cc(C(F)(F)F)cc(C(F)(F)F)c1 [C039, S=C(N[C@H]1[C@H](N(C)C)CCCC1)NC2=CC(C(F)(F)F)=CC(C(F)(F)F)=C2]	–	–	> 50 µM	0
CCCc1ccc(S(=O)(=O)NC2COc3ccc(OC)cc3C2)cc1 (centres unmarked) [C254, CCCc1ccc(cc1)S(=O)(=O)NC2Cc3cc(ccc3OC2)OC]	> 50 µM	0	–	–
CN(C)C1(CNc2c(N3CCN(Cc4ccccc4Cl)CC3)c(=O)c2=O)CCCC1 [C015, C[NH+](C)C1(CNc2c(N3CC[NH+](Cc4ccccc4Cl)CC3)c(=O)c2=O)CCCC1]	–	–	> 50 µM	0
O=C(CN(c1ccc(Br)cc1)S(=O)(=O)c1ccccc1)Nc1ccccc1C(=O)N1CCOCC1 [C233, c1ccc(cc1)S(=O)(=O)N(CC(=O)Nc2ccccc2C(=O)N3CCOCC3)c4ccc(cc4)Br]	> 50 µM	0	–	–
COc1cccc(N(CC(=O)N2CCC(C(N)=O)CC2)S(=O)(=O)c2ccc(C)cc2)c1 [C253, Cc1ccc(cc1)S(=O)(=O)N(CC(=O)N2CCC(CC2)C(=O)N)c3cccc(c3)OC]	> 50 µM	0	–	–
CCc1cccc(NC(=S)NNC(=O)c2cccc([N+](=O)[O-])c2)c1 [C033, CCc1cccc(NC(=S)NNC(=O)c2cccc(c2)[N+]([O-])=O)c1]	–	–	> 30 µM	0
CC1(O)CN(C(=O)c2cc3c(Br)cccc3[nH]2)C1 [C175, CC1(O)CN(C(=O)c2cc3c(Br)cccc3[nH]2)C1]	> 50 µM	0	–	–
COc1ccc(S(=O)(=O)N(CC(=O)Nc2cccc(OC)c2)c2ccccc2)cc1 [C245, COc1ccc(cc1)S(=O)(=O)N(CC(=O)Nc2cccc(c2)OC)c3ccccc3]	> 50 µM	0	–	–
CN(C)CCNc1c(Nc2cc(C(F)(F)F)cc(C(F)(F)F)c2)c(=O)c1=O [C024, O=C1C(NCCN(C)C)=C(NC2=CC(C(F)(F)F)=CC(C(F)(F)F)=C2)C1=O]	–	–	> 50 µM	0
CCOC(=O)CNC(=S)Nc1ncccc1C [C043, CC1=CC=CN=C1NC(NCC(OCC)=O)=S]	–	–	> 30 µM	0
CC(C)[C@@H]1OCCC[C@@H]1Nc1cc(N2CC[C@H](OCc3ccccn3)C2)ncn1 [C084, CC(C)[C@@H]1OCCC[C@@H]1Nc1cc(N2CC[C@H](OCc3ccccn3)C2)ncn1]	–	–	> 50 µM	0
CC(=O)c1cccc(NC(=O)NC(c2ccc(C)o2)C(C)(C)C)c1 (centres unmarked) [C062, CC(=O)c1cccc(NC(=O)NC(c2ccc(C)o2)C(C)(C)C)c1]	–	–	> 10 µM	0
CN(C)C(=O)c1cccc(NCC(=O)N(C)C2CCCCC2)c1 [C075, CN(C)C(=O)c1cccc(NCC(=O)N(C)C2CCCCC2)c1]	–	–	> 10 µM	0

Further lines, results first:

IC50 [1]	Decoy – 0 Active – 1 [2]	IC50 [3]	Decoy – 0 Active – 1 [4]	Structure (SMILES)
–	–	> 50 µM	0	C[C@@H]1CCN(Cc2ccccc2)C[C@H]1Nc1nccc(C(N)=O)c1[N+](=O)[O-] [C116, C[C@@H]1CC[N@H+](Cc2ccccc2)C[C@H]1Nc1nccc(C(N)=O)c1[N+](=O)[O-]]
> 50 µM	0	–	–	CCN1CCCC1C1CCCN1C(=O)CCc1c[nH]c2ccccc12 (centres unmarked) [C282, CCN1CCCC1C1CCCN1C(=O)CCc1c[nH]c2ccccc12]
> 50 µM	0	–	–	COc1ccc2c(c1)CCCN2C(=O)C1CC(=O)N(c2ccc3c(c2)OCCO3)C1 (centres unmarked) [C218, COc1ccc2c(c1)CCCN2C(=O)C1CC(=O)N(c2ccc3c(c2)OCCO3)C1]
> 50 µM	0	–	–	O=C(c1cn2ccccc2n1)N(CCN1CCCC1)Cc1ccc(Cl)c(Cl)c1 [C280, O=C(c1cn2ccccc2n1)N(CCN1CCCC1)Cc1ccc(Cl)c(Cl)c1]
–	–	> 50 µM	0	CN(C)C(=O)c1cc(NC(=O)NCC(C)(C)c2ccccc2)ccn1 [C129, CN(C)C(=O)c1cc(NC(=O)NCC(C)(C)c2ccccc2)ccn1]
–	–	> 50 µM	0	CCOC(=O)c1sc2ncnc(NC[C@H]3CCCO3)c2c1C [C103, CCOC(=O)c1sc2ncnc(NC[C@H]3CCCO3)c2c1C]
> 50 µM	0	–	–	CC1CN(C(=O)C(C)N2CCC(NS(=O)(=O)c3ccccc3)CC2)CC(C)O1 (centres unmarked) [C272, CC1CN(CC(O1)C)C(=O)C(C)[NH+]2CCC(CC2)NS(=O)(=O)c3ccccc3]
–	–	> 50 µM	0	C[C@@H](CNC(=O)Nc1ccnc(C(=O)N(C)C)c1)c1cccs1 [C119, C[C@@H](CNC(=O)Nc1ccnc(C(=O)N(C)C)c1)c1cccs1]
–	–	> 50 µM	0	O=S1(=O)N=C(NCCN2CCCC2)C(NCCN2CCCC2)=N1 [C150, O=S1(=O)N=C(NCC[NH+]2CCCC2)C(NCC[NH+]2CCCC2)=N1]
> 50 µM	0	–	–	O=C(Nc1ccc(Cl)cc1Cl)N1CC(O)C(F)C1 (centres unmarked) [C183, O=C(Nc1ccc(Cl)cc1Cl)N1CC(O)C(F)C1]
–	–	> 50 µM	0	Cc1c(NC(=O)CN(C)Cc2ccc(F)cc2)cccc1C(=O)N(C)C [C099, Cc1c(NC(=O)C[N@H+](C)Cc2ccc(F)cc2)cccc1C(=O)N(C)C]
> 50 µM	0	–	–	O=C(NCc1cccnc1-n1ccnc1)c1cc2ccccc2c(=O)[nH]1 [C215, O=C(NCc1cccnc1-n1ccnc1)c1cc2ccccc2c(=O)[nH]1]
> 50 µM	0	–	–	O=S(=O)(NCC(c1ccco1)N1CCc2ccccc21)c1ccc2c(c1)OCCO2 (centres unmarked) [C238, c1ccc2c(c1)CCN2C(CNS(=O)(=O)c3ccc4c(c3)OCCO4)c5ccco5]
> 50 µM	0	–	–	CC(C)(C(=O)NC1CCC(C(=O)O)C1)c1cccc(F)c1 (centres unmarked) [C210, CC(C)(C(=O)NC1CCC(C(=O)[O-])C1)c1cccc(F)c1]
–	–	> 50 µM	0	COC[C@@H](NC1=NS(=O)(=O)c2ccccc21)c1ccc(C)o1 [C134, COC[C@@H](NC1=NS(=O)(=O)c2ccccc21)c1ccc(C)o1]
–	–	> 50 µM	0	COCCN(Cc1cccs1)C(=O)N[C@@H](C)c1ccc(C)o1 [C141, COCCN(Cc1cccs1)C(=O)N[C@@H](C)c1ccc(C)o1]
> 50 µM	0	–	–	COc1ccc(S(=O)(=O)N(CC(=O)N2CCN(C)CC2)Cc2ccccc2)cc1C [C242, Cc1cc(ccc1OC)S(=O)(=O)N(Cc2ccccc2)CC(=O)N3CC[NH+](CC3)C]
–	–	> 50 µM	0	Cc1cnn(C[C@@H]2CCCN2C(=O)[C@H](C(C)C)n2cncn2)c1 [C143, Cc1cnn(C[C@@H]2CCCN2C(=O)[C@H](C(C)C)n2cncn2)c1]
> 50 µM	0	–	–	O=C(NC1CCC(C(=O)N2CCCCC2)C1)NC1C2Cc3cc(F)ccc3C21 (centres unmarked) [C227, O=C(NC1CCC(C(=O)N2CCCCC2)C1)NC1C2Cc3cc(F)ccc3C21]
> 50 µM	0	–	–	Cn1c(C2CC(=O)N(c3cccc(C(F)(F)F)c3)C2)nc2ccccc21 (centres unmarked) [C194, Cn1c(C2CC(=O)N(c3cccc(C(F)(F)F)c3)C2)nc2ccccc21]
